From US20170173002A1, “Compositions and Methods for Treating an Infection” (CMPD LICENSING, LLC, priority 2015, published 2017)

Experiments:
Clostridium perfringens = settings: expected efficacy against Clostridium perfringens
Shigella sonnei = assay: Expected efficacy of antibiotic agents; settings: expected efficacy against Shigella sonnei
Neisseria meningitidis = assay: Expected efficacy of antibiotic agents; settings: expected efficacy against Neisseria meningitidis
Enterobacter sakazakii = assay: Expected efficacy of antibiotic agents; settings: expected efficacy against Enterobacter sakazakii
Morganella morganii = assay: Expected efficacy of antibiotic agents; settings: expected efficacy against Morganella morganii
Pseudomonas aeruginosa = assay: Expected efficacy of antibiotic agents; settings: expected efficacy against Pseudomonas aeruginosa
Serratia marcescens = assay: Expected efficacy of antibiotic agents; settings: expected efficacy against Serratia marcescens
Haemophilus ducreyi = assay: Expected efficacy of antibiotic agents; settings: expected efficacy against Haemophilus ducreyi
Citrobacter freundii = assay: Expected efficacy of antibiotic agents; settings: expected efficacy against Citrobacter freundii
[1] = test system: Haemophilus parainfluenzae; assay: Expected efficacy of antibiotic agents; settings: expected efficacy against Haemophilus parainfluenzae
Campylobacter jejuni = assay: Expected efficacy of antibiotic agents; settings: expected efficacy against Campylobacter jejuni
Chlamydia pneumoniae = assay: Expected efficacy of antibiotic agents; settings: expected efficacy against Chlamydia pneumoniae
Francisella tularensis = settings: expected efficacy against Francisella tularensis
Diphtheroids = assay: Expected efficacy of antibiotic agents; settings: expected efficacy against Diphtheroids
Yersinia pestis = settings: expected efficacy against Yersinia pestis
Neisseria gonorrhoeae = assay: Expected efficacy of antibiotic agents; settings: expected efficacy against Neisseria gonorrhoeae
Enterococcus faecalis = assay: Expected efficacy of antibiotic agents; settings: expected efficacy against Enterococcus faecalis
Clostridium difficile = assay: Expected efficacy of antibiotic agents; settings: expected efficacy against Clostridium difficile
Acinetobacter lwoffii = assay: Expected efficacy of antibiotic agents; settings: expected efficacy against Acinetobacter lwoffii
[2] = test system: Klebsiella (Calymmatobacterium) granulomatis; assay: Expected efficacy of antibiotic agents; settings: expected efficacy against Klebsiella (Calymmatobacterium) granulomatis
Mycoplasma pneumoniae = assay: Expected efficacy of antibiotic agents; settings: expected efficacy against Mycoplasma pneumoniae
Rickettsiae = settings: expected efficacy against Rickettsiae
Bordetella pertussis = assay: Expected efficacy of antibiotic agents; settings: expected efficacy against Bordetella pertussis
Providencia rettgeri = assay: Expected efficacy of antibiotic agents; settings: expected efficacy against Providencia rettgeri
Haemophilus influenzae = assay: Expected efficacy of antibiotic agents; settings: expected efficacy against Haemophilus influenzae
Shigella flexneri = assay: Expected efficacy of antibiotic agents; settings: expected efficacy against Shigella flexneri
Klebsiella pneumoniae = assay: Expected efficacy of antibiotic agents; settings: expected efficacy against Klebsiella pneumoniae
Peptostreptococcus = assay: Expected efficacy of antibiotic agents; settings: expected efficacy against Peptostreptococcus
Klebsiella oxytoca = assay: Expected efficacy of antibiotic agents; settings: expected efficacy against Klebsiella oxytoca
Acinetobacter baumannii = assay: Expected efficacy of antibiotic agents; settings: expected efficacy against Acinetobacter baumannii
Escherichia coli = assay: Expected efficacy of antibiotic agents; settings: expected efficacy against Escherichia coli
Chlamydia trachomatis = assay: Expected efficacy of antibiotic agents; settings: expected efficacy against Chlamydia trachomatis
[3] = test system: Corynebacterium urealyticum; assay: Expected efficacy of antibiotic agents; settings: expected efficacy against Corynebacterium urealyticum
Streptococcus pyogenes = assay: Expected efficacy of antibiotic agents; settings: expected efficacy against Streptococcus pyogenes
[4] = test system: Staphylococcus epidermidis; assay: Expected efficacy of antibiotic agents; settings: expected efficacy against Staphylococcus epidermidis
Streptococcus pneumoniae = assay: Expected efficacy of antibiotic agents; settings: expected efficacy against Streptococcus pneumoniae
Citrobacter diversus = assay: Expected efficacy of antibiotic agents; settings: expected efficacy against Citrobacter diversus
[5] = test system: Viridans group streptococci; assay: Expected efficacy of antibiotic agents; settings: expected efficacy against Viridans group streptococci
Salmonella typhi = assay: Expected efficacy of antibiotic agents; settings: expected efficacy against Salmonella typhi
Shigella dysenteriae = assay: Expected efficacy of antibiotic agents; settings: expected efficacy against Shigella dysenteriae
Proteus vulgaris = assay: Expected efficacy of antibiotic agents; settings: expected efficacy against Proteus vulgaris
Enterococcus faecium = assay: Expected efficacy of antibiotic agents; settings: expected efficacy against Enterococcus faecium
Shigella boydii = assay: Expected efficacy of antibiotic agents; settings: expected efficacy against Shigella boydii
Corynebacterium jeikeium = assay: Expected efficacy of antibiotic agents; settings: expected efficacy against Corynebacterium jeikeium
Proteus mirabilis = assay: Expected efficacy of antibiotic agents; settings: expected efficacy against Proteus mirabilis
Enterobacter aerogenes = assay: Expected efficacy of antibiotic agents; settings: expected efficacy against Enterobacter aerogenes
Chlamydia psittaci = settings: expected efficacy against Chlamydia psittaci
Vibrio cholerae = assay: Expected efficacy of antibiotic agents; settings: expected efficacy against Vibrio cholerae
[6] = test system: Methicillin resistant staph aureus (MRSA); assay: Expected efficacy of antibiotic agents; settings: expected efficacy against Methicillin resistant staph aureus (MRSA)
Streptococcus agalactiae = assay: Expected efficacy of antibiotic agents; settings: expected efficacy against Streptococcus agalactiae
Moraxella catarrhalis = assay: Expected efficacy of antibiotic agents; settings: expected efficacy against Moraxella catarrhalis
[7] = test system: Acinetobacter calcoaceticus; assay: Expected efficacy of antibiotic agents; settings: expected efficacy against Acinetobacter calcoaceticus
Legionella pneumophila = settings: expected efficacy against Legionella pneumophila
Enterobacter cloacae = assay: Expected efficacy of antibiotic agents; settings: expected efficacy against Enterobacter cloacae
Bacteroides fragilis = assay: Expected efficacy of antibiotic agents; settings: expected efficacy against Bacteroides fragilis
[8] = test system: Staphylococcus aureus (MSSA); assay: Expected efficacy of antibiotic agents; settings: expected efficacy against Staphylococcus aureus (MSSA)
Providencia stuartii = assay: Expected efficacy of antibiotic agents; settings: expected efficacy against Providencia stuartii
Pseudomonas fluorescens = assay: Expected efficacy of antibiotic agents; settings: expected efficacy against Pseudomonas fluorescens
Brucella species = settings: expected efficacy against Brucella species

Q: Which results are given for `CO/N=C(\C(=O)N[C@@H]1C(=O)N2C(C(=O)O)=C(CSc3nc(=O)c(=O)[nH]n3C)CS[C@H]12)c1csc(N)n1` [Ceftriaxone, ceftriaxone]?
A: Efficacy (Clostridium perfringens): yes; Efficacy (Shigella sonnei): yes; Efficacy (Neisseria meningitidis): yes; Efficacy (Enterobacter sakazakii): yes; Efficacy (Morganella morganii): yes; Efficacy (Pseudomonas aeruginosa): no; Efficacy (Serratia marcescens): yes; Efficacy (Haemophilus ducreyi): yes; Efficacy (Citrobacter freundii): yes; Efficacy [1]: yes; Efficacy (Campylobacter jejuni): no; Efficacy (Chlamydia pneumoniae): no; Efficacy (Francisella tularensis): no; Efficacy (Diphtheroids): no; Efficacy (Yersinia pestis): no; Efficacy (Neisseria gonorrhoeae): yes; Efficacy (Enterococcus faecalis): no; Efficacy (Clostridium difficile): no; Efficacy (Acinetobacter lwoffii): no; Efficacy [2]: yes; Efficacy (Mycoplasma pneumoniae): no; Efficacy (Rickettsiae): no; Efficacy (Bordetella pertussis): no; Efficacy (Providencia rettgeri): yes; Efficacy (Haemophilus influenzae): yes; Efficacy (Shigella flexneri): yes; Efficacy (Klebsiella pneumoniae): yes; Efficacy (Peptostreptococcus): yes; Efficacy (Klebsiella oxytoca): yes; Efficacy (Acinetobacter baumannii): no; Efficacy (Escherichia coli): yes; Efficacy (Chlamydia trachomatis): no; Efficacy [3]: no; Efficacy (Streptococcus pyogenes): yes; Efficacy [4]: yes; Efficacy (Streptococcus pneumoniae): yes; Efficacy (Citrobacter diversus): yes; Efficacy [5]: yes; Efficacy (Salmonella typhi): yes; Efficacy (Shigella dysenteriae): yes; Efficacy (Proteus vulgaris): yes; Efficacy (Enterococcus faecium): no; Efficacy (Shigella boydii): yes; Efficacy (Corynebacterium jeikeium): no; Efficacy (Proteus mirabilis): yes; Efficacy (Enterobacter aerogenes): yes; Efficacy (Chlamydia psittaci): no; Efficacy (Vibrio cholerae): no; Efficacy [6]: no; Efficacy (Streptococcus agalactiae): yes; Efficacy (Moraxella catarrhalis): yes; Efficacy [7]: no; Efficacy (Legionella pneumophila): no; Efficacy (Enterobacter cloacae): yes; Efficacy (Bacteroides fragilis): yes; Efficacy [8]: yes; Efficacy (Providencia stuartii): yes

Q: Which results are given for `NC[C@H]1O[C@H](O[C@H]2[C@H](O)[C@@H](O[C@H]3O[C@H](CO)[C@@H](O)[C@H](N)[C@H]3O)[C@H](N)C[C@@H]2N)[C@H](N)C[C@@H]1O` [Tobramycin, tobramycin]?
A: Efficacy (Clostridium perfringens): no; Efficacy (Shigella sonnei): yes; Efficacy (Neisseria meningitidis): no; Efficacy (Enterobacter sakazakii): yes; Efficacy (Pseudomonas aeruginosa): yes; Efficacy (Serratia marcescens): yes; Efficacy (Haemophilus ducreyi): yes; Efficacy (Citrobacter freundii): yes; Efficacy (Campylobacter jejuni): yes; Efficacy (Chlamydia pneumoniae): no; Efficacy (Diphtheroids): no; Efficacy (Yersinia pestis): yes; Efficacy (Neisseria gonorrhoeae): no; Efficacy (Enterococcus faecalis): no; Efficacy (Clostridium difficile): no; Efficacy (Acinetobacter lwoffii): no; Efficacy [2]: yes; Efficacy (Mycoplasma pneumoniae): no; Efficacy (Bordetella pertussis): no; Efficacy (Haemophilus influenzae): yes; Efficacy (Shigella flexneri): yes; Efficacy (Klebsiella pneumoniae): yes; Efficacy (Peptostreptococcus): no; Efficacy (Klebsiella oxytoca): yes; Efficacy (Acinetobacter baumannii): no; Efficacy (Escherichia coli): yes; Efficacy (Chlamydia trachomatis): no; Efficacy [3]: no; Efficacy (Streptococcus pyogenes): no; Efficacy [4]: no; Efficacy (Streptococcus pneumoniae): no; Efficacy (Citrobacter diversus): yes; Efficacy [5]: no; Efficacy (Pseudomonas fluorescens): yes; Efficacy (Shigella dysenteriae): yes; Efficacy (Proteus vulgaris): yes; Efficacy (Enterococcus faecium): no; Efficacy (Shigella boydii): yes; Efficacy (Corynebacterium jeikeium): no; Efficacy (Proteus mirabilis): yes; Efficacy (Enterobacter aerogenes): yes; Efficacy (Chlamydia psittaci): no; Efficacy (Vibrio cholerae): no; Efficacy [6]: no; Efficacy (Streptococcus agalactiae): no; Efficacy (Moraxella catarrhalis): yes; Efficacy [7]: no; Efficacy (Legionella pneumophila): no; Efficacy (Enterobacter cloacae): yes; Efficacy (Bacteroides fragilis): no; Efficacy [8]: no

Q: What does the source list for Colistimethate?
A: Efficacy (Neisseria meningitidis): no; Efficacy (Enterobacter sakazakii): yes; Efficacy (Pseudomonas aeruginosa): yes; Efficacy (Serratia marcescens): no; Efficacy [1]: no; Efficacy (Chlamydia pneumoniae): no; Efficacy (Diphtheroids): no; Efficacy (Neisseria gonorrhoeae): no; Efficacy (Enterococcus faecalis): no; Efficacy (Clostridium difficile): no; Efficacy [2]: yes; Efficacy (Mycoplasma pneumoniae): no; Efficacy (Bordetella pertussis): no; Efficacy (Providencia rettgeri): no; Efficacy (Klebsiella pneumoniae): yes; Efficacy (Peptostreptococcus): no; Efficacy (Klebsiella oxytoca): yes; Efficacy (Escherichia coli): yes; Efficacy (Chlamydia trachomatis): no; Efficacy [3]: no; Efficacy (Streptococcus pyogenes): no; Efficacy [4]: no; Efficacy (Streptococcus pneumoniae): no; Efficacy [5]: no; Efficacy (Pseudomonas fluorescens): yes; Efficacy (Proteus vulgaris): no; Efficacy (Enterococcus faecium): no; Efficacy (Corynebacterium jeikeium): no; Efficacy (Proteus mirabilis): no; Efficacy (Enterobacter aerogenes): yes; Efficacy (Chlamydia psittaci): no; Efficacy (Vibrio cholerae): no; Efficacy [6]: no; Efficacy (Streptococcus agalactiae): no; Efficacy (Brucella species): no; Efficacy (Moraxella catarrhalis): no; Efficacy (Legionella pneumophila): no; Efficacy (Enterobacter cloacae): yes; Efficacy (Bacteroides fragilis): no; Efficacy [8]: no; Efficacy (Providencia stuartii): no
